Data as given in patent publication US4252956A, “Derivatives of 1,4-dihydropyridine-3-carbothiol acids” (priority 1979, dated 1981).
Read-outs that look alike come from different tables or passages of the source.

Tests used:
[1] = test system: coronarodilating activity; details: in vivo; cited from earlier work
coronary blood flow = experiment: recording the volume rate of coronary blood flow in experiments on narcotized cats (coronarodilating activity); format: in vivo; details: for ED (30-50%): Felis catus, iv, read-out: Dose increasing the coronary blood flow by 30-50%; for Duration of the effect: Table, at the dose increasing the coronary blood flow; for coronarodilating activity: narcotized cats
Description: (§1) Tests of the compounds according to the present invention were performed in comparison with the prior art coronarodilating agents; carbocromene and ditrimine and with the prior art spasmolytic preparation-papaverine having a myotropic effect.

arterial pressure = experiment: hypotensive effect (arterial pressure, heart activity); format: in vivo; details: for ED30: read-out: ED30 of the hypotensive effect
Description: as §1

white mice = experiment: in vivo
in vivo = details: mouse, in vivo, ip; white mice, intraperitoneal; read-out: LD50 for white mice upon intraperitoneal administration
[2] = increase of coronary blood flow by 30-50%

## COC(=O)C1=C(C)NC(C)=C(C(=O)OC)C1c1ccccc1[N+](=O)[O-] [2,6-dimethyl-3,5-dicarbometh-oxy-4-o-nitrophenyl-1,4-dihydropyridine]
[1]
  coronarodilating activity (prior art): pronounced coronarodilating activity

## CCOC(=O)COc1ccc2c(C)c(CCN(CC)CC)c(=O)oc2c1 [Carbocromene, reference compound]
Coronary blood flow; [2]
  ED (30-50%): 0.5 mg/kg

## COc1cc(C(=O)OCCCN(C)CCN(C)CCCOC(=O)c2cc(OC)c(OC)c(OC)c2)cc(OC)c1OC [Ditrimine, reference compound]
Coronary blood flow; [2]
  Dose increasing the coronary blood flow by 30-50%: 0.5 mg/kg
Arterial pressure; in vivo
  ED30 of the hypotensive effect: 1.0 mg/kg
White mice
  LD50 for white mice upon intraperitoneal administration: 180 (149-218) mg/kg

## CCSC(=O)C1=C(C)NC(C)=C(C(=O)SCC)C1 [I, Di-S-ethyl ester of 2,6-dimethyl-1,4-dihydropyridine-3,5-dicarbothiol acid]
Coronary blood flow; [2]
  ED (30-50%): 1 mg/kg
Coronary blood flow
  Duration of the effect: 60 to 90 min
Arterial pressure
  ED30: 1.8 mg/kg
In vivo
  LD50: > 4000 mg/kg

## CCSC(=O)C1=C(C)NC(C)=C(C(=O)SCC)C1c1cccnc1 [II, Di-S-ethyl ester of 2,6-dimethyl-4-m-pyridyl-1,4-dihydropyridine-3,5-dicarbothiol acid]
Coronary blood flow; [2]
  ED (30-50%): 0.5 mg/kg
Coronary blood flow
  Duration of the effect: > 120 min
  coronarodilating activity: most active
Arterial pressure
  ED30: 0.56 mg/kg

## CCOC(=O)C1=C(C)NC(C)=C(C(=O)SCc2ccccc2)C1c1ccccc1 (centres unmarked) [III, 3-S-benzyl-5-ethyl ester of 4-phenyl-2,6-dimethyl-1,4-dihydropyridine-3-carbothiol-5-carboxylic acid]
Coronary blood flow; [2]
  ED (30-50%): 0.5 mg/kg
Coronary blood flow
  Duration of the effect: 150 min
  coronarodilating activity: most active
Arterial pressure
  ED30: 1.65 mg/kg

## CCOC(=O)C1=C(C)NC(C)=C(C(=O)SCc2ccccc2)C1C (centres unmarked) [IV, 3-S-benzyl-5-ethyl ester of 2,4,6-trimethyl-1,4-dihydropyridine-3-carbothiol-5-carboxylic acid]
Coronary blood flow; [2]
  ED (30-50%): 2 to 4 mg/kg
Coronary blood flow
  Duration of the effect: 30 to 60 min
Arterial pressure
  ED30: 3.45 mg/kg

## CCSC(=O)C1=C(C)NC2=C(C(=O)c3ccccc32)C1c1ccc([N+](=O)[O-])cc1 (centres unmarked) [IX, 2-methyl-3-ethyl-thiocarbonyl-4-p-nitrophenyl-5-oxo-1,4-dihydroindeno-(1,2-b)-pyridine]
Coronary blood flow; [2]
  ED (30-50%): 3 mg/kg
Arterial pressure
  ED30: 1 mg/kg

## COc1ccc(Cc2nccc3cc(OC)c(OC)cc23)cc1OC [Papaverine, reference compound]
Coronary blood flow
  ED (30-50%): 1 mg/kg
  Duration of the effect: 10 to 20 min
Arterial pressure
  ED30: 0.27 mg/kg
In vivo
  LD50: 91 mg/kg

## CCSC(=O)C1=C(C)NC2=C(C(=O)c3ccccc32)C1c1ccccc1 (centres unmarked) [V, 2-methyl-3-ethylthiocarbonyl-4-phenyl-5-oxo-1,4-dihydroindeno-(1,2-b)-pyridine]
Coronary blood flow; [2]
  ED (30-50%): 3 mg/kg
Arterial pressure
  ED30: 3 mg/kg

## CC1=C(C(=O)SCc2ccccc2)C(c2ccccc2)C2=C(N1)c1ccccc1C2=O (centres unmarked) [VI, 2-methyl-3-benzylthiocarbonyl-4-phenyl-5-oxo-1,4-dihydroindeno-(1,2-b)-pyridine]
Coronary blood flow
  ED (30-50%): 0.3 mg/kg
  coronarodilating activity: most active
Arterial pressure
  ED30: 1 mg/kg

## CC1=C(C(=O)SCc2ccccc2)C(c2ccccc2O)C2=C(N1)c1ccccc1C2=O (centres unmarked) [VII, 2-methyl-3-benzylthiocarbonyl-4-o-hydroxyphenyl-5-oxo-1,4-dihydroindeno-(1,2-b)-pyridine]
Coronary blood flow
  ED (30-50%): 0.5 mg/kg
  coronarodilating activity: most active
Arterial pressure
  ED30: 1 mg/kg

## CCSC(=O)C1=C(C)NC2=C(C(=O)c3ccccc32)C1c1ccccc1O (centres unmarked) [VIII, 2-methyl-3-ethylthiocarbonyl-4-o-hydroxyphenyl-5-oxo-1,4-dihydroindeno-(1,2-b)pyridine]
Coronary blood flow; [2]
  ED (30-50%): 3 mg/kg
Arterial pressure
  ED30: 5 mg/kg

## CCSC(=O)C1=C(C)NC2=C(C(=O)c3ccccc32)C1c1ccccc1[N+](=O)[O-] (centres unmarked) [X, 2-methyl-3-ethylthiocarbonyl-4-o-nitrophenyl-5-oxo-1,4-dihydroindeno-(1,2-b)-pyridine]
Coronary blood flow; [2]
  ED (30-50%): 3 mg/kg
In vivo
  LD50: > 2000 mg/kg
